Patent US9655879B2, “Heteroarylcarboxylic acid ester derivative” (EA Pharma Co., Ltd., priority 2012, dated 2017)

Test system: Zucker Fatty rats
Experiment: Evaluation of hypoglycemic action
Format: in vivo, rat
Details: gavage 3 mg/kg, HCl salt form, 2 or 4 hours after dosing
Protocol: Zucker Fatty rats (male, 11-19 week-old, Charles River Japan, Inc.) known to spontaneously develop hyperglycemia were randomly assigned to the groups (6 per group). The animals were individually housed in a polycarbonate cage and allowed to drink water freely from a watering bottle. The animals in the compound groups were gavaged with compound No. 10, 87, 19, or 69 at the dose of 3 mg/kg. These compounds were used as HCl salt form thereof, converted by the method according to Example 3, step 6 from TFA salt form thereof upon the necessity. The animals in the control group were only treated with the vehicle (0.5% methylcellulose). Animals were allowed free access to the feed (CRF-1, Oriental Yeast Co., Ltd.) during the experiment. An aspirate of the blood (6 μL) was collected from the tail vein on the time point of immediately before dosing (time 0) as well as 2, 4, and 8 hours after dosing. The blood glucose levels were determined with ACCU-CHEK Aviva (Roche Diagnostics K.K.).

SMILES	blood glucose levels compared with vehicle group
CCCN(CC(=O)O)C(=O)C(C)(C)Cc1ccc(C(=O)Oc2ccc(C(=N)N)cc2F)s1.Cl [Compound 10, N-{3-[5-(4-amidino-2-fluorophenoxycarbonyl)thiophen-2-yl]-2,2-dimethylpropionyl}-N-propylglycine hydrochloride]	significantly decreased
CCC(CC)(Cc1ccc(C(=O)Oc2ccc(C(=N)N)cc2F)s1)C(=O)N[C@@H](CC(=O)O)C(=O)O.Cl [Compound 19]	significantly decreased
CC(C)(Cc1ccc(C(=O)Oc2ccc(C(=N)N)cc2F)s1)C(=O)N[C@@H](C(=O)O)c1ccc(O)cc1 [Compound 69]	significantly decreased
